Data from patent US11236121B2, “Crystalline 19-nor C3,3-disubstituted C21-N-pyrazolyl steroid” (priority 2016, dated 2022).
In brackets after ≈: the same amount, converted by molar mass. Entries after “also recorded” stand apart in the source; their conditions may differ. Where two headings read alike, the source gives them in different places.

How the values were obtained:
[1] = Hygroscopicity by dynamic vapor sorption (DVS); assay type: physicochemical; details: for water uptake at 80% RH / water uptake at 95% RH: DVS isotherm; for water uptake at 80% RH / water uptake at 95% RH / form change before and after DVS (XRPD) / hygroscopicity: 25° C.; for form change before and after DVS (XRPD) / hygroscopicity / water uptake at RH less than or equal to 95%: DVS; for water uptake at RH less than or equal to 95%: RH less than or equal to 95% (description section)
Description: Dynamic vapor sorption (DVS) was measured via an SMS (Surface Measurement Systems) DVS Intrinsic system. The relative humidity at 25° C. was calibrated against the deliquescence point of LiCl, Mg(NO3)2, and KCl.
The hygroscopicity of Form A, Form C, and Form K were investigated at 25° C. using DVS. The XRPD patterns of each sample before and after DVS were compared in order to investigate any potential form change.

[2] = Equilibrium solubility of Forms A, C and P in ethyl acetate; assay type: physicochemical
Description: (§1) Solubility profiles of Forms A, C and P across a range of temperature can give an indication of the relative stability of different forms within different temperature ranges. Sufficient equilibrium solubility data were collected experimentally covering 5-70° C.

[3] = Crystal form and relative stability of slurried solids in EtOAc, checked by XRPD; assay type: physicochemical; details: for Crystal Form Checked by XRPD: ethyl acetate
Description: During solubility measurements, an XRPD pattern was detected in (a) slurries of Form A in EtOAc at 5° C. (after 1 h) and 20° C. (after 2 days), (b) slurries of Form C in EtOAc at 5° C. (after 1 h) and 20° C. (after 7 days). There was no direct match of this solid form's XRPD pattern to other crystal forms of Compound 1.
as §1

[4] = assay type: physicochemical
Description: In each experiment, approximately 10 to 20 mg of Form A was suspended in 0.5 mL of a solvent or mixture of solvents. After stirring at RT or 50° C. for 48 hours, the solids were isolated by centrifugation for analysis (wet sample). If the suspensions turned into clear solution, the clear solutions were kept at ambient conditions for slow evaporation.
In one embodiment, the inter-conversion between Forms A, C and K can be studied in a series of slurry conversion experiments conducted in ethyl acetate, n-butanol, and methyl tert-butyl ether (MBTE) at both room temperature (RT) and 50° C. Compound 1 can display moderate solubility, and may yield solvated forms during these screening experiments. The transition temperature between Forms A and C was estimated to be ˜17° C., and the transition temperature between Forms K and C was above 100° C.

[5] = assay type: physicochemical; details: for stability of the crystalline form in words: XRPD, ambient conditions
Description: A PANalytical Empyrean X-ray powder diffractometer with a 12-well auto-sampler stage was used for analysis throughout this study. Resolution calibration of the instrument was performed every 6 months, and sensitivity measurements were performed after the sample stage was changed. A silicon (Si) pressed powder sample was used as the reference standard.
The wet cake of Form P (˜5 min air) was dried in two ways: (a) under air at room temperature overnight, and (b) under vacuum at 40° C. for 3 hours. Both dried cakes were analyzed by XRPD, 1H-NMR, and TGA.

For `C[C@@]1(O)CC[C@H]2[C@H](CC[C@@H]3[C@@H]2CC[C@]2(C)[C@@H](C(=O)Cn4cc(C#N)cn4)CC[C@@H]32)C1` [Form A], the “water uptake at 80% RH” value [1] was 0.06 % by weight, the “water uptake at 95% RH” value [1] was “less than 0.12 % by weight” and the “form change before and after DVS (XRPD)” value [1] was “no form change”. For the same compound, the hygroscopicity [1] was “non-hygroscopic”, the “water uptake at RH less than or equal to 95%” value (shortened to “water uptake … to 95%”) [1] was “less than 0.30 weight percent” and the solubility at 2 day ([2]; 20 °C, organic solvent or mixture, thermodynamic from solid, equilibration 2 day) was 12.4 mg/mL (≈ 30.3 mM). It also gave a solubility at 4 h ([2]; 30 °C, organic solvent or mixture, thermodynamic from solid, equilibration 4 h) of 15.5 mg/mL (≈ 37.8 mM), a solubility at 7 h ([2]; 40 °C, organic solvent or mixture, thermodynamic from solid, equilibration 7 h) of 18.8 mg/mL (≈ 45.9 mM) and a solubility at 20 h ([2]; 50 °C, organic solvent or mixture, thermodynamic from solid, equilibration 20 h) of 25 mg/mL (≈ 61 mM). For the same compound, the solubility at 4 h ([2]; 60 °C, organic solvent or mixture, thermodynamic from solid, equilibration 4 h) was 31.7 mg/mL (≈ 77.4 mM), the “solid form detected by XRPD in slurry in EtOAc” value (“solid form detected by XRPD” for short) ([3]; 5° C., after 1 h) was “Form P” and the “solid form detected by XRPD” value ([3]; 20° C., after 2 days) was “Form P”. The “Crystal Form Checked by XRPD” value ([3]; 20 ° C., 2 day) was “No Form Change”, the “Crystal Form Checked by XRPD” value ([3]; 30 ° C., 4 h) was “No Form Change” and the “Crystal Form Checked by XRPD” value ([3]; 40 ° C., 7 h) was “No Form Change”. For the same compound, the “Crystal Form Checked by XRPD” value ([3]; 50 ° C., 20 h) was “No Form Change” and the “Crystal Form Checked by XRPD” value ([3]; 60 ° C., 4 h) was “No Form Change”.
In the case of `C[C@@]1(O)CC[C@H]2[C@H](CC[C@@H]3[C@@H]2CC[C@]2(C)[C@@H](C(=O)Cn4cc(C#N)cn4)CC[C@@H]32)C1` [Form C], the “water uptake at 80% RH” value [1] is reported as 0.12 % by weight, the “water uptake at 95% RH” value [1] is reported as “less than 0.30 % by weight” and the “form change before and after DVS (XRPD)” value [1] is reported as “no form change”. For the same compound, the hygroscopicity [1] was “non-hygroscopic”, the “water uptake … to 95%” value [1] was “less than 0.32 weight percent” and the Solubility ([2]; 20 ° C., equilibration 2 day) was 11.8 mg/mL (≈ 28.8 mM). It also gave a Solubility ([2]; 30 ° C., equilibration 4 h) of 14.9 mg/mL (≈ 36.4 mM), a Solubility ([2]; 40 ° C., equilibration 7 h) of 17.9 mg/mL (≈ 43.7 mM) and a Solubility ([2]; 50 ° C., equilibration 20 h) of 23.7 mg/mL (≈ 57.9 mM). The Solubility ([2]; 60 ° C., equilibration 4 h) was 29.8 mg/mL (≈ 72.8 mM), the “transition temperature between Forms A and C” value ([4]; estimated from slurry conversion experiments) was about 17 °C and the “transition temperature between Forms K and C” value ([4]; from slurry conversion experiments) was “above 100 °C”. For the same compound, the “thermodynamic stability compared to Form A and Form K” value ([4]; slurry conversion in ethyl acetate, n-butanol or methyl tert-butyl ether, room temperature to 50° C.) was “more thermodynamically stable”, the “solid form detected by XRPD” value ([3]; 5° C., after 1 h) was “Form P” and the “solid form detected by XRPD” value ([3]; 20° C., after 7 days) was “Form P”. For the same compound, the “relative stability of forms” value ([3]; EtOAc, across the entire processing temperature range (5-70° C. data)) was “more stable than Form A”, the “Crystal Form Checked by XRPD” value ([3]; 20 ° C., 2 day) was “No Form Change” and the “Crystal Form Checked by XRPD” value ([3]; 30 ° C., 4 h) was “No Form Change”. For the same compound, the “Crystal Form Checked by XRPD” value ([3]; 40 ° C., 7 h) was “No Form Change”, the “Crystal Form Checked by XRPD” value ([3]; 50 ° C., 20 h) was “No Form Change” and the “Crystal Form Checked by XRPD” value ([3]; 60 ° C., 4 h) was “No Form Change”.
For `C[C@@]1(O)CC[C@H]2[C@H](CC[C@@H]3[C@@H]2CC[C@]2(C)[C@@H](C(=O)Cn4cc(C#N)cn4)CC[C@@H]32)C1` [Form E], the “form after drying (XRPD)” value ([5]; drying at ambient (room temperature) conditions) was “transformed to a mixture of Forms A and C that exhibited low crystallinity”.
For `C[C@@]1(O)CC[C@H]2[C@H](CC[C@@H]3[C@@H]2CC[C@]2(C)[C@@H](C(=O)Cn4cc(C#N)cn4)CC[C@@H]32)C1` [Form H], the “stability of the crystalline form in words” value (from here on “stability … in words”) [5] was “metastable”.
For `C[C@@]1(O)CC[C@H]2[C@H](CC[C@@H]3[C@@H]2CC[C@]2(C)[C@@H](C(=O)Cn4cc(C#N)cn4)CC[C@@H]32)C1` [Form I], the “stability … in words” value [5] was “metastable”.
In the case of `C[C@@]1(O)CC[C@H]2[C@H](CC[C@@H]3[C@@H]2CC[C@]2(C)[C@@H](C(=O)Cn4cc(C#N)cn4)CC[C@@H]32)C1` [Form J], the “stability … in words” value [5] is reported as “metastable” and the “form after drying (XRPD)” value ([5]; drying at ambient conditions for 3 days) is reported as “transforms to Form A”.
In the case of `C[C@@]1(O)CC[C@H]2[C@H](CC[C@@H]3[C@@H]2CC[C@]2(C)[C@@H](C(=O)Cn4cc(C#N)cn4)CC[C@@H]32)C1` [Form K], the “water uptake at 80% RH” value [1] is reported as 0.18 % by weight, the “water uptake at 95% RH” value [1] is reported as “less than 0.35 % by weight” and the “form change before and after DVS (XRPD)” value [1] is reported as “no form change”. For the same compound, the hygroscopicity [1] was “non-hygroscopic” and the “water uptake … to 95%” value [1] was “less than 0.35 weight percent”.
With `C[C@@]1(O)CC[C@H]2[C@H](CC[C@@H]3[C@@H]2CC[C@]2(C)[C@@H](C(=O)Cn4cc(C#N)cn4)CC[C@@H]32)C1` [Form L] the “stability … in words” value [5] was “metastable”.
With `C[C@@]1(O)CC[C@H]2[C@H](CC[C@@H]3[C@@H]2CC[C@]2(C)[C@@H](C(=O)Cn4cc(C#N)cn4)CC[C@@H]32)C1` [Form N] the “form after storage (XRPD)” value ([5]; overnight, under ambient conditions) was “transforms to Form A”.
For `C[C@@]1(O)CC[C@H]2[C@H](CC[C@@H]3[C@@H]2CC[C@]2(C)[C@@H](C(=O)Cn4cc(C#N)cn4)CC[C@@H]32)C1` [Form P], the solubility at 20 h ([2]; 5 °C, organic solvent or mixture, thermodynamic from solid, equilibration 20 h) was 5.4 mg/mL (≈ 13.2 mM), the solubility at 3 day ([2]; 10 °C, organic solvent or mixture, thermodynamic from solid, equilibration 3 day) was 6.6 mg/mL (≈ 16.1 mM) and the solubility at 2 day ([2]; 15 °C, organic solvent or mixture, thermodynamic from solid, equilibration 2 day) was 8 mg/mL (≈ 19.5 mM). For the same compound, the Solubility ([2]; 20 ° C., equilibration 2 day) was 11.4 mg/mL (≈ 27.8 mM), the solubility at 20 h ([2]; 25 °C, organic solvent or mixture, thermodynamic from solid, equilibration 20 h) was 12.6 mg/mL (≈ 30.8 mM) and the solubility at 20 h ([2]; 30 °C, organic solvent or mixture, thermodynamic from solid, equilibration 20 h) was 13.5 mg/mL (≈ 33 mM). For the same compound, the “XRPD pattern of dried cake” value ([5]; wet cake dried under air at room temperature overnight) was “conforming to Form P”, the “XRPD pattern of dried cake” value ([5]; wet cake dried under vacuum at 40° C. for 3 hours) was “conforming to Form A” and the “relative stability of forms” value ([3]; EtOAc, ≤20° C.) was “more stable than both Forms A and C; also recorded: more stable than Form C”. For the same compound, the “stability in EtOAc” value ([3]; EtOAc, ≥35° C.) was “converts to Form A”, the “Crystal Form Checked by XRPD” value ([3]; 5 ° C., 20 h) was “Form P” and the “Crystal Form Checked by XRPD” value ([3]; 10 ° C., 3 day) was “Form P”. For the same compound, the “Crystal Form Checked by XRPD” value ([3]; 15 ° C., 2 day) was “Form P”, the “Crystal Form Checked by XRPD” value ([3]; 20 ° C., 2 day) was “No Form Change” and the “Crystal Form Checked by XRPD” value ([3]; 25 ° C., 20 h) was “Form P”. The “Crystal Form Checked by XRPD” value ([3]; 30 ° C., 20 h) was “Form P” and the “Crystal Form Checked by XRPD” value ([3]; 40 ° C., 24 h) was “Form P to Form”.
In the case of `C[C@@]1(O)CC[C@H]2[C@H](CC[C@@H]3[C@@H]2CC[C@]2(C)[C@@H](C(=O)Cn4cc(C#N)cn4)CC[C@@H]32)C1` [Forms A and K (with Form C seeds)], the “Final Form after slurry conversion” value ([4]; Ethyl acetate, RT) is reported as “Form C”.
For `C[C@@]1(O)CC[C@H]2[C@H](CC[C@@H]3[C@@H]2CC[C@]2(C)[C@@H](C(=O)Cn4cc(C#N)cn4)CC[C@@H]32)C1` [Forms A and K], the “Final Form after slurry conversion” value ([4]; Ethyl acetate, 50° C.) was “Form C”.
For `C[C@@]1(O)CC[C@H]2[C@H](CC[C@@H]3[C@@H]2CC[C@]2(C)[C@@H](C(=O)Cn4cc(C#N)cn4)CC[C@@H]32)C1` [Forms A, C and K], the “Final Form after slurry conversion” value ([4]; MBTE, 50° C.) was “Form C”, the “Final Form after slurry conversion” value ([4]; MBTE, RT) was “Form C” and the “Final Form after slurry conversion” value ([4]; n-Butanol, 50° C.) was “Form C”. The “Final Form after slurry conversion” value ([4]; n-Butanol, RT) was “Form C”.
